One assay has as its target Cruzain (Trypanosoma cruzi, UniProt P25779). Description: Cysteine protease inhibition, progress curve method, cruzain. Conditions: 4 uM Ac-Lys-Glu-Lys-Leu-Arg-AMC, 100 mM Na acetate pH 5.5, 5 mM cysteine; read-out: Cruzain Ki. Type of assay: biochemical. How it is done: Standard assay conditions for the determination of kinetic constants used 10 uM fluorogenic peptide substrate, Cbz-Phe-Arg-AMC for the cysteine proteases from Leishmania spp and Schistosoma Mansoni, Cbz-Leu-Arg-AMC for the cysteine proteases from Plasmodium falciparum and Trypanosoma brucei rhodesiensi, and Ac-Lys-Glu-Lys-Leu-Arg-AMC (4 uM final substrate concentration) for the cysteine protease from Trypoanosoma cruzi, and were determined in 100 mM Na acetate at pH 5.5 containing 5 mM cysteine. Stock substrate solutions were prepared at concentrations of […] in DMSO with 10 uM (4 uM for Ac-Lys-Glu-Lys-Leu-Arg-AMC) final substrate concentration in the assays. The final DMSO concentration was 2% and the final volume was 100 uL. All assays were conducted at ambient temperature. Product progress curves were generated over 20 to 30 minutes following formation of AMC product.
Potential inhibitors were evaluated using the progress curve method. Assays were carried out in the presence of variable concentrations of test compound. Reactions were initiated by addition of enzyme to buffered solutions of inhibitor and substrate. Data analysis was conducted according to one of two procedures depending on the appearance of the progress curves in the presence of inhibitors. For those compounds whose progress curves were linear, apparent inhibition constants (Ki,app) were calculated according to equation 1 (Brandt et al., Biochemitsry, 1989, 28, 140):
v=VmA/[Ka(1+I/Ki,app)+A] (1)
Where v is the velocity of the reaction with maximal velocity Vm, A is the concentration of substrate with Michaelis constant of Ka, and I is the concentration of inhibitor.
[AMC]=vsst+(v0−vss)[1−exp (−kobst)]/kobs (2)
Where [AMC] is the concentration of product formed over time t, v0 is the initial reaction velocity and vss is the final steady state rate. Values for kobs were then analyzed as a linear function of inhibitor concentration to generate an apparent second order rate constant (kobs/inhibitor concentration or kobs/[I]) describing the time-dependent inhibition. A complete discussion of this kinetic treatment has been fully described (Morrison et al., Adv. Enzymol. Relat. Areas Mol. Biol., 1988, 61, 201).
Exemplary inhibition data for the compounds used in the present method collected in accordance with the above-described procedure are listed in Table I.
Sequence of Cruzain (P25779 123-337): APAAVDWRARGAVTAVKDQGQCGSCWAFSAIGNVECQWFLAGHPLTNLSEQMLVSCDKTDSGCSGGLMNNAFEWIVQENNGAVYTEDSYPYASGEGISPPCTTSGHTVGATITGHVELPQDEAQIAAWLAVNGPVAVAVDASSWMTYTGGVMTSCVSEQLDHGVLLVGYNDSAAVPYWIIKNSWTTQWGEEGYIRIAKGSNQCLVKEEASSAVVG
With `CC(C)C[C@@H](NC(=O)c1ccc2c(c1)OCCCO2)C(=O)N[C@@H]1CCCN(S(=O)(=O)c2cccc[n+]2[O-])CC1=O` [Example 60, 3,4-Dihydro-2H-benzo[b][1,4]dioxepine-7-carboxylic acid {(S)-3-methyl-1-[3-oxo-1-(1-oxy-pyridine-2-sulfonyl)-azepan-4-ylcarbamoyl]butyl}amide], the inhibition constant (Ki) worked out at 9.8 nM.

For the compound `CC(C)CC(NC(=O)NCc1ccccc1)C(=O)NC1CCCN(S(=O)(=O)c2ccccn2)CC1=O` [Example 80, (S)-2-(3-Benzyl-ureido)-4-methyl-pentanoic acid [3-oxo-carboxylic-(pyridine-2-sulfonyl)azepan4-yl]-amide], the inhibition constant (Ki) came out at 15 nM. On the same count and under the same terms, then `COc1cccc2oc(C(=O)N[C@@H](CC(C)C)C(=O)N[C@H]3CCN(S(=O)(=O)c4cccc[n+]4[O-])CCC3=O)c(C)c12` [Example 203, 4-Methoxy-3-methyl-benzofuran-2-carboxylic acid {(S)-3-methyl-1-[3-oxo-1-(1-oxy-pyridine-2-sulfonyl)-azepan-4-ylcarbamoyl]-butyl}-amide], with 20 nM. In the case of `CC(C)C[C@@H](NC(=O)c1cc2ccccc2[nH]1)C(=O)N[C@@H]1CCCN(S(=O)(=O)c2ccccc2)CC1=O` (stereo in doubt) [Example 11, 1H-Indole-2-carboxylic acid [(S)-1-(1-benzenesulfonyl-3-oxo-azepan-4-ylcarbamoyl)-3-methyl-butyl]amide], the Ki was 100 nM.

In the case of `CC(C)C[C@H](NC(=O)[C@H]1CCC(=O)N1Cc1ccccc1)C(=O)N[C@@H]1CCCN(S(=O)(=O)c2ccccn2)CC1=O` [Example 158], the Ki worked out at 6.8 nM. Same read-out and setting: then `CC(C)C[C@@H](NC(=O)c1cc2cc(OCCN3CCOCC3)ccc2o1)C(=O)NC1CCCN(S(=O)(=O)c2cccc[n+]2[O-])CC1=O` (stereo partly drawn) [Example 56, 5-(2-Morpholin-4-yl-ethoxy)-benzofuran-2-carboxylic acid {(S)-3-methyl-1-[3-oxo-(1-oxy-pyridine2-sulfonyl)-azepan-4-ylcarbamoyl]-buty}-amide], with 7.8 nM; and `CC(C)C[C@H](NC(=O)c1cnc2ccccc2n1)C(=O)N[C@@H]1CCCN(S(=O)(=O)c2cccs2)CC1=O` [Example 147, Quinoxaline-2-carboxylic acid-{(S)-3-methyl-1-[3-oxo-1-(thiophene-2-sulfonyl)-azepan-4-ylcarbamoyl]-butyl}-amide], with 7.5 nM. With `CC(C)C[C@@H](NC(=O)c1cc2ccccc2cn1)C(=O)N[C@@H]1CCCN(S(=O)(=O)c2ccccn2)CC1=O` (stereo in doubt) [Example 28, Isoquinoline-3-carboxylic acid {(S)-3-methyl-1-[3-oxo-1-(pyridine-2-sulfonyl)-azepan-4-ylcarbamoyl]-butyl}amide], the inhibitory constant (Ki) came to 24 nM.

As for `CC(C)CC(NC(=O)c1ccc(S(C)(=O)=O)cc1)C(=O)N[C@@H]1CCCN(S(=O)(=O)c2ccccc2C#N)CC1=O` (stereo partly shown) [Example 114], the Ki was found to be 14 nM.

Take `CC(C)C[C@H](NC(=O)c1ccc2ccccc2n1)C(=O)NC1CCCN(Cc2ccccc2)CC1=O` (stereo partly drawn) [Example 2, Quinoline-2-carboxylic acid [(S)-1-(1-benzyl-3-oxo-azepan-4-ylcarbamoyl)-3-methyl-butyl]amide]: the Ki was found to be 44 nM.

Take `Cc1c(C(=O)N[C@H](CC(C)C)C(=O)N[C@H]2CCCN(S(=O)(=O)c3cccc[n+]3[O-])CC2=O)oc2ccc(F)cc12` [Example 192, 5-Fluoro-3-methyl-benzofuran-2-carboxylic acid {(S)-3-methyl-1-[3-oxo-1-(1-oxy-pyridine-2-sulfonyl)-azepan-4-ylcarbamoyl]-butyl}-amide]: the inhibition constant Ki stood at 14 nM. The same measure, in the same setting: then `CC(C)C[C@@H](NC(=O)c1cc2cc(OCCN3CCCCC3)ccc2o1)C(=O)NC1CCCN(S(=O)(=O)c2ccccc2)CC1=O` (single isomer, unassigned) [Example 14], with 67 nM. The same measure, in the same setting: the figure for `CC(C)CC(NC(=O)c1cc2ccccc2o1)C(=O)NC1CCC(C)N(S(=O)(=O)c2ccccn2)CC1=O` (stereo in doubt) [Example 181, Benzofuran-2-carboxylic acid {(S)-3-methyl-1-[(4S,7S)-7-methyl-3-oxo-1-(pyridine-2-sulfonyl)-azepan-4-ylcarbamoyl]-butyl}-amide] is 15 nM; for `CC(C)C[C@H](NC(=O)c1cnc2ccccc2n1)C(=O)N[C@H]1CCCN(S(=O)(=O)c2ccccc2F)CC1=O` [Example 96, Quinoxaline-2-carboxylic acid-{(S)-1-[1-(2-fluoro-benzenesulonyl)-3-oxo-azepan-4-ylcarbamoyl]-3-methyl-butyl}-amide] it is 8.7 nM. On the same count and under the same terms, the figure for “4-[2-(2-{(S)-3-Methyl-1[3-oxo-1-(pridine-2-sulfonyl)-azepan-4-ylcarbamoyl]-butylcarbamoyl}-benzofuran-5-yloxy)-ethyl]-piperazine-1-carboxylic acid tert-butyl ester [Example 22]” is 14 nM. With `CC(C)C[C@@H](NC(=O)c1ccc(S(C)(=O)=O)cc1)C(=O)N[C@@H]1CCCN(S(=O)(=O)c2ccc(F)cc2)CC1=O` [Example 121, 4-Methansulfonyl-N—{(S)-1-[4-fluoro-benzenesulfonyl)-3-oxo-azepan-4-carbamoyl]-3-methyl-butyl-benzamide], the Ki is 11 nM. Consider `CCCC[C@H](NC(=O)c1cc2ccccc2o1)C(=O)NC1CCCN(S(=O)(=O)c2ccccn2)CC1=O` (stereo partly drawn) [Example 103, Benzofuran-2-carboxylic acid{(S)-1-[3-oxo-1-(pyridine-2-sulfonyl)-azepan-4-ylcarbamoyl]-pentyl}-amide], for which the Ki was found to be 60 nM. Still for that read-out and setting: then `CC(C)C[C@@H](NC(=O)c1cc2ccccc2[nH]1)C(=O)N[C@@H]1CCCN(S(=O)(=O)c2ccccn2)CC1=O` (stereo in doubt) [Example 32, 1H-Indole-2-carboxylic acid {(S)-3-methyl-1-[3-oxo-1-(pyridine-2-sulfonyl)-azepan-4-ylcarbamoyl]-butyl}amide], with 17 nM. As for `Cc1cccc(S(=O)(=O)N2CCC[C@@H](NC(=O)[C@@H](CC(C)C)NC(=O)c3cc4ccccc4o3)C(=O)C2)n1` (stereo in doubt) [Example 172, Benzofuran-2-carboxylic acid {(S)-3-methyl-1-[1-(6-methyl-pyridine-2-sulfonyl)-3-oxo-azepan-4-ylcarbamoyl]-butyl}amide], the Ki was determined as 7.4 nM. Still for that read-out and setting: then `CC(C)C[C@H](NC(=O)c1cc2ccccc2s1)C(=O)N[C@H]1CCCN(S(=O)(=O)c2ccccc2F)CC1=O` [Example 95, Benzo[b]thiophene-2-carboxylic acid-{(S)-1-[1-(2-fluoro-benzenesulfonyl)-3-oxo-azepan-4-ylcarbamoyl]-3-methyl-butyl}-amide], with 11 nM; and `CC(C)C[C@@H](NC(=O)c1cc2cc(OCCN3CCCC3)ccc2o1)C(=O)N[C@@H]1CCCN(S(=O)(=O)c2ccccc2)CC1=O` (stereo in doubt) [Example 8, 5-(2-Pyrrolidin-1-yl-ethoxy)-benzofuran-2-carboxylic acid [(S)-1-(1-benzenesulfonyl-3-oxo-azepan-4-ylcarbamoyl)-3-methyl-butyl]amide], with 8 nM. Same read-out and setting: the figure for `CC(C)C[C@@H](NC(=O)c1cc(Br)c(Br)s1)C(=O)N[C@@H]1CCCN(S(=O)(=O)c2cccc[n+]2[O-])CC1=O` [Example 61, 4,5-Dibromo-thiophene-2-carboxylic acid {(S)-3-methyl-1-[3-oxo-1-(1-oxy-pyridine-2-sulfonyl)-azepan-4-ylcarbamoyl]-butyl}amide] is 40 nM; for `CC(C)C[C@@H](NC(=O)c1cc2cc(OCCN3CCOCC3)ccc2o1)C(=O)N[C@@H]1CCCN(S(=O)(=O)c2ccccc2)CC1=O` (stereo in doubt) [Example 6, 5-(2-Morpholin-4-yl-ethoxy)-benzofuran-2-carboxylic acid [(S)-1-(1-benzenesulfonyl-3-oxo-azepan-4-ylcarbamoyl)-3-methyl-butyl]amide] it is 21 nM; for `CC(C)C[C@@H](NC(=O)c1ccc2ccccc2n1)C(=O)N[C@@H]1CCCN(S(=O)(=O)c2ccccn2)CC1=O` (stereo in doubt) [Example 24, Quinoline-2-carboxylic acid {(S)-3-methyl-1-[3-oxo-1-(pyridine-2-sulfonyl)-azepan-4-ylcarbamoyl]-butyl}amide] it is 23 nM.

Staying with this assay, now noted: Cruzain Ki nM, 4 uM Ac-Lys-Glu-Lys-Leu-Arg-AMC, 100 mM Na acetate pH 5.5, 5 mM cysteine.
Compound `Cc1c(C(=O)NC(CC(C)C)C(=O)NC2CCCN(S(=O)(=O)c3cccc[n+]3[O-])CC2=O)oc2ccc3ccccc3c12` [Example 210, 1-methyl-naphtho[2,1-b]-furan-2-carboxylic acid {(S)-3-methyl-1-[3oxo-1-(1-oxy-pyridine-2-sulfonyl)-azepan-4-ylcarbamoyl]-butyl}-amide] registered a Ki of 6.6 nM.

For orientation: Ki means a dissociation constant, usually derived from enzyme kinetics or from competition with a known ligand.

For the origin of these results see patent US20030044399A1, “Method of treatment” (SmithKline Beecham Corporation, priority 1998, published 2003).
